# Measured values reported in US4594347A, “Pyrrolo [3,2,1-ij]-quinoline carboxylic acid compound” (Otsuka Pharmaceutical Co. Limited, priority 1983, dated 1986).
# Tests used:
# Proteus mirabilis 1287 = assay: Antimicrobial test in vitro (MIC, agar plate dilution method); format: cell-based; design: unit not given here; conditions: P. mirabilis 1287
# Method: (§1) The antimicrobial activities of the following test compounds were tested by measuring the minimum inhibitory concentration (MIC) by an agar plate dilution method [cf. Chemotherapy, 22, 1126-1128 (1974)]. The test microorganisms were used in a concentration of 1×10^8 cells/ml (optical dencity (O.D.) at 660 m: 0.07-0.16) and 1×10^6 cells/ml (dilution: 100 folds).
# F: Proteus mirabilis 1287
# [1] = tested on: Streptococcus pyogenes II D S-23; assay: as above; format: cell-based; design: unit not given here; conditions: S. pyogenes II D S-23
# Method: as §1
# B: Streptococcus pyogenes II D S-23
# [2] = tested on: Pseudomonas aeruginosa ATCC 10145; assay: as above; format: cell-based; design: unit not given here; conditions: P. aeruginosa ATCC 10145
# Method: as §1
# J: Pseudomonas aeruginosa ATCC 10145
# [3] = tested on: Pseudomonas aeruginosa E-2; assay: as above; format: cell-based; design: unit not given here; conditions: P. aeruginosa E-2
# Method: as §1
# K: Pseudomonas aeruginosa E-2
# Escherichia coli No. 29 = assay: as above; format: cell-based; design: unit not given here; conditions: E. coli No. 29
# Method: as §1
# D: Escherichia coli No. 29
# [4] = tested on: Proteus morganii II D Kono; assay: as above; format: cell-based; design: unit not given here; conditions: P. morganii II D Kono
# Method: as §1
# G: Proteus morganii II D Kono
# [5] = tested on: Serratia marcescens IFO 12648; assay: as above; format: cell-based; design: unit not given here; conditions: S. marcescens IFO 12648
# Method: as §1
# H: Serratia marcescens IFO 12648
# [6] = tested on: Escherichia coli NIHJ JC-2; assay: as above; format: cell-based; design: unit not given here; conditions: E. coli NIHJ JC-2
# Method: as §1
# C: Escherichia coli NIHJ JC-2
# [7] = tested on: Klebsiella pneumoniae NCTC 9632; assay: as above; format: cell-based; design: unit not given here; conditions: K. pneumoniae NCTC 9632
# Method: as §1
# E: Klebsiella pneumoniae NCTC 9632
# [8] = tested on: Staphylococcus aureus FDA 209P; assay: as above; format: cell-based; design: unit not given here; conditions: S. aureus FDA 209P
# Method: as §1
# A: Staphylococcus aureus FDA 209P
# [9] = tested on: Acinetobacter calcoaceticus AC-54; assay: as above; format: cell-based; design: unit not given here; conditions: A. calcoaceticus AC-54
# Method: as §1
# I: Acinetobacter calcoaceticus AC-54
# [10] = tested on: Pseudomonas aeruginosa E-2; assay: Therapeutic effects of compounds in urinary infectious diseases in vivo; design: species or system JCL:S.D. female rats; conditions: E2, 96 h, female S.D. rats, bladder infection, oral at 6, 24 and 48 hours, urine and kidney colonies after 4 days, Probit method, read-out: 50% effective dose (ED50)
# Method: Pseudomonas aeruginosa E-2 was cultured in a nutrient medium at 37° C. for 18 hours and the culture broth thus obtained was diluted with the same medium to prepare a solution of the microorganism (cell concentration: 10^7 cells/ml). To the solution were dipped a UV-sterilized disc [glyceryl monomyristate (manufactured by Nikko Chemicals, Japan) and sodium cetylsulfurate (manufactured by Nikko Chemicals, Japan) in a weight ratio of 9:1; diameter: 2.0 mm, length: 3.0 mm] under ice-cooling for 1.5 hour to give a microorganism-containing disc for inoculation.
# The above-prepared disc was surgically inserted into the bladder of JCL:S.D. female rats (one group: four rats) anaesthetized with secobarbital sodium. After the animals have been infected with the microorganism, i.e. 6 hours after the insertion of the disc, 1% oxamide-containing feed and water were administered to the animals. The oxamide-containing feed was changed to a normal feed after 24 hours. Test compounds 1, 7 and 8 as used in Test 1 (in the form of a 0.5% CMC suspension) were each orally administered to the animals in a dose of 16 mg/kg, 8.0 mg/kg, 4.0 mg/kg, 2.0 mg/kg, and 1.0 mg/kg at 6, 24 and 48 hours after the insertion of disc. After 4 days from the infection, urine was collected and further the kidney was taken out from the animals, and then the presence of microorganism was checked as to the collected urine and kidney. That is, 0.1 ml of the urine was applied onto an agar plate medium and cultured at 37° C. for 18 hours, and the number of colonies was counted. Besides, the taken out kidney was divided into two, and the plain section was contacted to an agar plate medium, and the medium was cultured likewise, and the number of colonies was counted, likewise. When the number of colonies was less than 10, it was evaluated as "effective," and when the number of colonies was more than 10, it was evaluated as "ineffective". […]
minimum inhibitory concentration (MIC) (Proteus mirabilis 1287; 1×10^6 cells/ml),minimum inhibitory concentration (MIC) (Proteus mirabilis 1287; 1×10^8 cells/ml),minimum inhibitory concentration (MIC) ([1]; 1×10^6 cells/ml),minimum inhibitory concentration (MIC) ([1]; 1×10^8 cells/ml),minimum inhibitory concentration (MIC) ([2]; 1×10^6 cells/ml),minimum inhibitory concentration (MIC) ([2]; 1×10^8 cells/ml),minimum inhibitory concentration (MIC) ([3]; 1×10^6 cells/ml),minimum inhibitory concentration (MIC) ([3]; 1×10^8 cells/ml),minimum inhibitory concentration (MIC) (Escherichia coli No. 29; 1×10^6 cells/ml),minimum inhibitory concentration (MIC) (Escherichia coli No. 29; 1×10^8 cells/ml),minimum inhibitory concentration (MIC) ([4]; 1×10^6 cells/ml),minimum inhibitory concentration (MIC) ([4]; 1×10^8 cells/ml),minimum inhibitory concentration (MIC) ([5]; 1×10^6 cells/ml),minimum inhibitory concentration (MIC) ([5]; 1×10^8 cells/ml),minimum inhibitory concentration (MIC) ([6]; 1×10^6 cells/ml),minimum inhibitory concentration (MIC) ([6]; 1×10^8 cells/ml),minimum inhibitory concentration (MIC) ([7]; 1×10^6 cells/ml),minimum inhibitory concentration (MIC) ([7]; 1×10^8 cells/ml),minimum inhibitory concentration (MIC) ([8]; 1×10^6 cells/ml),minimum inhibitory concentration (MIC) ([8]; 1×10^8 cells/ml),SMILES,further results
0.78,1.56,12.5,12.5,3.13,6.25,6.25,6.25,0.2,0.39,0.39,0.39,0.78,0.78,0.2,0.2,0.39,0.39,0.2,0.39,"CC1Cc2c(N3CCOCC3)c(F)c(N)c3c(=O)c(C(=O)O)cn1c23 (stereo not shown) [Compound 3, 7-amino-8-fluoro-9-(4-morpholino)-2-methyl-6-oxo-1,2-dihydro-pyrrolo[3,2,1-ij]quinoline-5-carboxylic acid]",minimum inhibitory concentration (MIC) ([9]; 1×10^6 cells/ml): 0.78; minimum inhibitory concentration (MIC) ([9]; 1×10^8 cells/ml): 1.56
6.25,6.25,25,25,12.5,25,25,25,1.56,1.56,1.56,1.56,6.25,6.25,0.78,0.78,1.56,3.13,0.39,0.39,"CC1Cc2c(N3CCCCC3)c(F)c(N)c3c(=O)c(C(=O)O)cn1c23 (stereo not shown) [Compound 4, 7-amino-8-fluoro-2-methyl-6-oxo-9-(1-piperidyl)-1,2-dihydro-pyrrolo[3,2,1-ij]quinoline-5-carboxylic acid]",minimum inhibitory concentration (MIC) ([9]; 1×10^6 cells/ml): 6.25; minimum inhibitory concentration (MIC) ([9]; 1×10^8 cells/ml): 6.25
1.56,1.56,6.25,12.5,6.25,6.25,6.25,12.5,0.78,0.78,1.56,1.56,1.56,3.13,0.39,0.78,0.78,0.78,0.2,0.39,"CC1Cc2c(N3CCC(O)CC3)c(F)c(N)c3c(=O)c(C(=O)O)cn1c23 (stereo not shown) [Compound 5, 7-amino-8-fluoro-9-(4-hydroxy-1-piperidyl)-2-methyl-6-oxo-1,2-dihydro-pyrrolo[3,2,1-ij]quinoline-5-carboxylic acid]",minimum inhibitory concentration (MIC) ([9]; 1×10^6 cells/ml): 3.13; minimum inhibitory concentration (MIC) ([9]; 1×10^8 cells/ml): 6.25
6.25,6.25,6.25,12.5,6.25,12.5,1.56,12.5,1.56,1.56,6.25,6.25,6.25,6.25,0.78,1.56,1.56,6.25,0.39,0.78,"CC1Cc2c(N3CCCC3)c(F)c(N)c3c(=O)c(C(=O)O)cn1c23 (stereo not shown) [Compound 6, 7-amino-8-fluoro-2-methyl-6-oxo-9-(1-pyrrolidinyl)-1,2-dihydro-pyrrolo[3,2,1-ij]quinoline-5-carboxylic acid]",minimum inhibitory concentration (MIC) ([9]; 1×10^6 cells/ml): 6.25; minimum inhibitory concentration (MIC) ([9]; 1×10^8 cells/ml): 6.25

# Further lines, the molecule ahead of its results:
SMILES,minimum inhibitory concentration (MIC) (Proteus mirabilis 1287; 1×10^6 cells/ml),minimum inhibitory concentration (MIC) (Proteus mirabilis 1287; 1×10^8 cells/ml),minimum inhibitory concentration (MIC) ([1]; 1×10^6 cells/ml),minimum inhibitory concentration (MIC) ([1]; 1×10^8 cells/ml),minimum inhibitory concentration (MIC) ([2]; 1×10^6 cells/ml),minimum inhibitory concentration (MIC) ([2]; 1×10^8 cells/ml),minimum inhibitory concentration (MIC) ([3]; 1×10^6 cells/ml),minimum inhibitory concentration (MIC) ([3]; 1×10^8 cells/ml),minimum inhibitory concentration (MIC) (Escherichia coli No. 29; 1×10^6 cells/ml),minimum inhibitory concentration (MIC) (Escherichia coli No. 29; 1×10^8 cells/ml),minimum inhibitory concentration (MIC) ([4]; 1×10^6 cells/ml),minimum inhibitory concentration (MIC) ([4]; 1×10^8 cells/ml),minimum inhibitory concentration (MIC) ([5]; 1×10^6 cells/ml),minimum inhibitory concentration (MIC) ([5]; 1×10^8 cells/ml),minimum inhibitory concentration (MIC) ([6]; 1×10^6 cells/ml),minimum inhibitory concentration (MIC) ([6]; 1×10^8 cells/ml),minimum inhibitory concentration (MIC) ([7]; 1×10^6 cells/ml),minimum inhibitory concentration (MIC) ([7]; 1×10^8 cells/ml),minimum inhibitory concentration (MIC) ([8]; 1×10^6 cells/ml),minimum inhibitory concentration (MIC) ([8]; 1×10^8 cells/ml),further results
"CC1Cc2c(N3CCNCC3)c(F)c(N)c3c(=O)c(C(=O)O)cn1c23 (stereo not shown) [Compound 2, 8-fluoro-2-methyl-9-(1-piperazinyl)-7-amino-6-oxo-1,2-dihydro-pyrrolo[3,2,1-ij]quinoline-5-carboxylic acid]",0.2,0.2,3.13,6.25,0.39,0.39,0.39,0.39,0.1,0.1,0.2,0.39,0.2,0.2,0.1,0.1,0.1,0.2,0.39,0.78,minimum inhibitory concentration (MIC) ([9]; 1×10^6 cells/ml): 0.78; minimum inhibitory concentration (MIC) ([9]; 1×10^8 cells/ml): 3.13
"CC1Cc2c(N3CCN(C)CC3)c(F)cc3c(=O)c(C(=O)O)cn1c23 (stereo not shown) [Test compound 7, 8-fluoro-2-methyl-6-oxo-9-(4-methyl-1-piperazinyl)-1,2-dihydro-pyrrolo[3,2,1-ij]quinoline-5-carboxylic acid]",–,–,–,–,–,–,–,–,–,–,–,–,–,–,–,–,–,–,–,–,ED50 [10]: 6.15 mg/kg
"CC1CCc2c(N3CCN(C)CC3)c(F)cc3c(=O)c(C(=O)O)cn1c23 (stereo not shown) [Test compound 8, 8-(4-methyl-1-piperazinyl)-9-fluoro-5-methyl-6,7-dihydro-1-oxo-1H,5H-benzo[ij]quinolidine-2-carboxylic acid]",–,–,–,–,–,–,–,–,–,–,–,–,–,–,–,–,–,–,–,–,ED50 [10]: 12 mg/kg
